Laboratory results published in article PMC7604909, “Structure of a GH51 α-L-arabinofuranosidase from Meripilus giganteus: conserved substrate recognition from bacteria to fungi” (Acta Crystallographica. Section D, Structural Biology, 2020).
Where a name gives a salt, the structure may show the parent alone.

What was measured:
[1] = target: T1, MgGH51 (Meripilus giganteus, UniProt Z9H0M4BQG1); assay: X-ray crystal structure, […] Å; format: binding; details: type 1 crystal, about one equivalent of inhibitor, 1 h at room temperature; covalent, bound to nucleophile Glu429 (ring-opened aziridine)
T1 construct: mature secreted enzyme, expressed in Aspergillus oryzae, N-glycosylated (Asn145, Asn245, Asn421, Asn487), untagged
T1 sequence (Z9H0M4BQG1 1-627): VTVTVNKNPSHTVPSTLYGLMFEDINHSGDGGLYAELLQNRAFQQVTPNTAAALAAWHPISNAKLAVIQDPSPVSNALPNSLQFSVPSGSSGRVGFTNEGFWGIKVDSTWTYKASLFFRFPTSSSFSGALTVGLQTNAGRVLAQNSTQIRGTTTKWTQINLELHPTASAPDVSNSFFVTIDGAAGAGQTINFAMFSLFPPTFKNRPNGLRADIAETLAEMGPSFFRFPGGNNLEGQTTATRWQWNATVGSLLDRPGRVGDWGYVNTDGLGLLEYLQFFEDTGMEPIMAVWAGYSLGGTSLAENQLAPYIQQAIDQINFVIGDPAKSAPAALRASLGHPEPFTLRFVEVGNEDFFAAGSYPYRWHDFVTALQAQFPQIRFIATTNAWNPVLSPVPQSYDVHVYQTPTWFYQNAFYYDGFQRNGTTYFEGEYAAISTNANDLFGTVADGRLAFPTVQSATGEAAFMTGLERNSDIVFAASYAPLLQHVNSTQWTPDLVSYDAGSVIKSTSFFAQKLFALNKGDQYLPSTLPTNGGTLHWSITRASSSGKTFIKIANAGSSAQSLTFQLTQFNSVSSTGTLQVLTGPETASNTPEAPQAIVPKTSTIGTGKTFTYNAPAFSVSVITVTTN

[2] = target: T1, MgGH51; assay: X-ray crystal structure, […] Å; format: binding; details: type 1 crystal, about one equivalent of inhibitor, 1 h at room temperature; covalent, bound to nucleophile Glu429 (ring-opened cyclic sulfate); PDB code from Tables 3 and 4, the supplementary list pri
[3] = target: T1, MgGH51; assay: hydrolysis kinetics, released L-arabinose quantified on CarboPac PA20; format: biochemical; details: 40 °C, 50 mM sodium acetate pH 4, 5 ng/ml enzyme, 0.02-2.5 mM substrate; kind of constant not told in main text

| Structure (SMILES) | hydrolysis kinetics, released L-arabinose quantified on CarboPac PA20 [3] | further results |
| --- | --- | --- |
| OC[C@H]1[C@H](O)[C@@H](O)[C@@H]2N[C@H]12 [α-L-AraAZI, α-L-arabinocyclophellitol aziridine] | – | X-ray crystal structure, 1.54 Å [1]: α-L-AraCS or α-L-AraAZI gave clear density for these two ligands bound to Glu429 |
| O=S1(=O)O[C@@H]2[C@@H](CO)[C@H](O)[C@@H](O)[C@@H]2O1 [α-L-AraCS, α-L-arabinocyclophellitol cyclic sulfate] | – | X-ray crystal structure, 1.71 Å [2]: α-L-AraCS or α-L-AraAZI gave clear density for these two ligands bound to Glu429 |
| OC[C@@H]1O[C@@H](OC[C@@H]2O[C@@H](OC[C@@H]3OC(O)[C@H](O)[C@H]3O)[C@H](O)[C@H]2O)[C@H](O)[C@H]1O (stereo partly drawn) [A3, α(1,5)-linked arabinotriose] | Measurement of the hydrolytic kinetics of MgGH51 towards the AX2 and A3 oligosaccharides | – |
| OC[C@@H]1O[C@@H](O[C@@H]2[C@@H](O)[C@H](O[C@@H]3COC(O)[C@H](O)[C@H]3O)OC[C@H]2O)[C@H](O)[C@H]1O (stereo partly drawn) [AX2, 3^2-α-L-Arabinofuranosyl-xylobiose] | Measurement of the hydrolytic kinetics of MgGH51 towards the AX2 and A3 oligosaccharides | – |
